Assay results published in ChEMBL document CHEMBL1649307, “Development, validation, and routine application of a high-performance liquid chromatography method coupled with a single mass detector for quantification of itraconazole, voriconazole, and posaconazole in human plasma” (Antimicrob Agents Chemother, 2010).
Values belong to the compound of their own block, whether it stands above or below them.

Key:
Type in all cases: ADME, organism-based
Settings in all cases: in vivo
[1] = tested on: Plasma; assay: Metabolic stability in healthy human plasma assessed as compound recovery at 6 mg/kg BID; parameters: dose 6 mg/kg
[2] = tested on: Plasma; assay: Metabolic stability in healthy human plasma assessed as compound recovery at 7 mg/kg BID; parameters: dose 7 mg/kg
[3] = tested on: Plasma; assay: Metabolic stability in healthy human plasma assessed as compound recovery at 3 mg/kg QD; parameters: dose 3 mg/kg

Structure (SMILES): CC[C@@H]([C@H](C)O)n1ncn(-c2ccc(N3CCN(c4ccc(OC[C@@H]5CO[C@@](Cn6cncn6)(c6ccc(F)cc6F)C5)cc4)CC3)cc2)c1=O [POSACONAZOLE]
Stability [1]: 85.5%

Structure (SMILES): C[C@@H](c1ncncc1F)[C@](O)(Cn1cncn1)c1ccc(F)cc1F [VORICONAZOLE]
Stability [2]: 97.2%

Stability [3]: 114.5%
Structure (SMILES): CCC(C)n1ncn(-c2ccc(N3CCN(c4ccc(OCC5COC(Cn6cncn6)(c6ccc(Cl)cc6Cl)O5)cc4)CC3)cc2)c1=O (stereo not drawn) [ITRACONAZOLE]
